Laboratory results taken from patent US12139473B2, “Substituted-N-heteroaryl compounds and uses thereof” (Bionomics Limited, priority 2019, dated 2024).

Tests used:
hKv3.2 = target: T1, hKv3.2 (Homo sapiens, UniProt Q96PR1); assay: Automated patch clamp electrophysiology (Patchliner), CHO/Kv3.2 cells; assay type: cell-based; conditions: 10 μM compound, hKv3.2 in CHO-K1, whole-cell; for activation at 10 µM: peak current at voltage step of −10 mV vs vehicle (0.33% DMSO), read-out: Kv3.2 Activity at 10 μM Potentiation (%); for Kv3.2 Activity at 10 μM Voltage Shift (mV): voltage shift of the IV curve at V1/2
T1 construct: expressed in transfected cells
T1 sequence (Q96PR1 1-638): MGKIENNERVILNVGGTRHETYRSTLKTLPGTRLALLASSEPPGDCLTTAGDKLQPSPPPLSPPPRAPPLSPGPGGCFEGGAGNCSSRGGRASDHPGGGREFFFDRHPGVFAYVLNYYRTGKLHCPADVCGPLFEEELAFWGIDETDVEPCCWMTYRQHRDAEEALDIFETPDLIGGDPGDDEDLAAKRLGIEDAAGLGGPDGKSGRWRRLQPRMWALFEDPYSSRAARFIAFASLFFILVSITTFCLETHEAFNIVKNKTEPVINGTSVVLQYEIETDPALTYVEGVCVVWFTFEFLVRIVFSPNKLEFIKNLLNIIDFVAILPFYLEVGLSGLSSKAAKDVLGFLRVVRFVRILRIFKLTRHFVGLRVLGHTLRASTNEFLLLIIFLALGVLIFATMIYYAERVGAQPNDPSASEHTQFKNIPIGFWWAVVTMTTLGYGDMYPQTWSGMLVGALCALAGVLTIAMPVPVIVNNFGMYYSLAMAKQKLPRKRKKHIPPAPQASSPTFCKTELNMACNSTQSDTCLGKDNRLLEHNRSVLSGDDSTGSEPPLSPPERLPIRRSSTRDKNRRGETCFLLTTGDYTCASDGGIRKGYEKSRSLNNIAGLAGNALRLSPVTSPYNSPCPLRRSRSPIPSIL
Experimental: (§1) hKv3.1, hKv3.2, hKv3.3, and hKv3.4 were stably expressed in CHO-K1 (Chinese hamster ovary) cells and kept under constant antibiotic selection. For in vitro assays, cells were maintained in appropriate growth medium at 37° C. and 5% CO2 in a humidified incubator.
(§2) hKv3.X expressing cells were plated in T-25 flasks for 3-4 days at 37° C. (no selection antibiotic) prior to use and grown to 80% confluence. Cells were washed twice with PBS (calcium and magnesium free) and detached with a 5-minute treatment at 37° C. with 2-3 mls of Accutase®. Cells were collected, and flask was washed in CHO-SFM II media (Life Technologies Gibco), centrifuged for 2 minutes at ˜110×g and resuspended to obtain a single cell suspension of ˜2-3×10^6 cells/ml.
(§3) The intracellular solution contained the following (in mM): KCl 50, NaCl 10, KF 60, EGTA 20, HEPES 10, adjusted to pH 7.2 with KOH and an osmolarity of 285 mOsmol. Seal enhancer was purchased from Nanion (80 mM NaCl, 3 mM KCl, 10 mM MgCl2, 35 mM CaCl2), 10 mM HEPES, pH7.4, 298 mOsmol. The external solution contained (in mM): NaCl 140, KCl 4, CaCl2) 2, MgCl2 1, HEPES 10, Glucose 5, adjusted to pH7.4 and an osmolarity of 298 mOsmol.
(§4) All compounds were initially tested at 10 uM at a final DMSO concentration of 0.33%. Compounds were dissolved in dimethylsulfoxide (DMSO) at a stock concentration of 30 mM. The compound was further diluted 1:10 to give a stock concentration of 3 mM in DMSO. The final assay solution was diluted 1:300 in External solution to give a final concentration of 10 uM. For the DMSO Control Buffer 30 uL of DMSO was added to 10 mL buffer.
(§5) All electrophysiological recordings were performed at ambient temperature (21-23° C.) using automated patch clamp (Patchliner, Nanion Technologies GmbH) in the whole-cell configuration.
(§6) Cell membrane potentials were held at −80 mV, and currents were evoked by voltage steps (1000 ms duration) from −60 to +60 mV in 10 mV increments. This was performed first with vehicle (0.33% DMSO) and then with 10 uM compound, after a 3-minute incubation period. Data was taken from 4 cells per assay.
(§7) The recordings were analysed and selected using peak current amplitude (>100 pA at the −10 mV voltage step) in the absence of compound to eliminate unsuitable cells from analysis. Peak current amplitude was measured and recorded for each voltage step and data was normalised to the maximum current at +60 mV. The normalised Kv3.x currents following addition of the compound were then compared with the currents recorded prior to compound addition (vehicle control). Positive modulation was determined as % potentiation at the voltage step of −10 mV=[current (cmpd)/current (veh)]*100−100. % potentiation≥50% was considered acceptable. In addition, voltage shift of the IV curve at V1/2 was measured. V1/2 of ≥−5 mV was also considered acceptable. IV curves were plotted in GraphPad Prism (software version 6.0) and fitted with a Boltzmann equation, where V1/2 is the voltage at half-maximal activation.

hKv3.1 = target: T2, hKv3.1 (Homo sapiens, UniProt P48547); assay: Automated patch clamp electrophysiology (Patchliner), CHO/Kv3.1 cells; assay type: cell-based; conditions: 10 μM compound, hKv3.1 in CHO-K1, whole-cell; for Kv3.1 Activity at 10 μM Potentiation (%): peak current at voltage step of −10 mV vs vehicle (0.33% DMSO); for Kv3.1 Activity at 10 μM Voltage Shift (mV): voltage shift of the IV curve at V1/2
T2 construct: expressed in transfected cells
T2 sequence (P48547 1-511): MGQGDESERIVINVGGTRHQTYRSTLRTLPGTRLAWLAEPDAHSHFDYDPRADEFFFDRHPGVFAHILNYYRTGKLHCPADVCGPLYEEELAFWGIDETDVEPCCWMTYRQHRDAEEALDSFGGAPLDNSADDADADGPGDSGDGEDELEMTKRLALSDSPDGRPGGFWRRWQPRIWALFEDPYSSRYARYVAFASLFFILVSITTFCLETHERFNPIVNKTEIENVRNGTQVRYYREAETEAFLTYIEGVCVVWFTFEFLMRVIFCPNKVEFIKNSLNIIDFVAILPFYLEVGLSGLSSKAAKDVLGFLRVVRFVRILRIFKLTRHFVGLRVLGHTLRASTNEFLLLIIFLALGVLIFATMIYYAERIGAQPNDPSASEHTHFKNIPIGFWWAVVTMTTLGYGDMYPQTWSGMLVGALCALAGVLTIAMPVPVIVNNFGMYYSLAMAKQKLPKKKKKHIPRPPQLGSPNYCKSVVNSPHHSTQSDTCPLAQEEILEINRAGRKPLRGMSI
Experimental: as §1, §2, §3, §4, §5, §6, §7

SMILES	activation at 10 µM (hKv3.2)	Kv3.2 Activity at 10 μM Voltage Shift (mV) (hKv3.2)	Kv3.1 Activity at 10 μM Potentiation (%) (hKv3.1)	Kv3.1 Activity at 10 μM Voltage Shift (mV) (hKv3.1)
COc1cc(Oc2nccc(N3C(=O)NC(C)(C)C3=O)n2)ccc1C [Example 63, 3-[2-(3-methoxy-4-methyl-phenoxy)pyrimidin-4-yl]-5,5-dimethyl-imidazolidine-2,4-dione]	25%	−2.3 mV	50%	−4.2 mV
COc1cc(Oc2cc(N3C(=O)NC(C)(C)C3=O)ncn2)ccc1C [Example 1, 3-[6-(3-methoxy-4-methyl-phenoxy)pyrimidin-4-yl]-5,5-dimethyl-imidazolidine-2,4-dione]	25%	−4.3 mV	45%	−5.5 mV
COc1cc(Oc2cc(N3C(=O)NC4(CCCCC4)C3=O)ncn2)ccc1F [Example 15, 3-[6-(4-fluoro-3-methoxy-phenoxy)pyrimidin-4-yl]-1,3-diazaspiro[4.5]decane-2,4-dione]	1%	−0.3 mV	17%	−2.7 mV
COc1cc(Oc2cc(N3C(=O)NC(C)(C)C3=O)ncn2)ccc1F [Example 13, 3-[6-(3-methoxy-4-fluoro-phenoxy)pyrimidin-4-yl]-5,5-dimethyl-imidazolidine-2,4-dione]	86%	−9.2 mV	40%	−2.7 mV
COc1cc(Oc2cncc(N3C(=O)NC(C)(C)C3=O)n2)ccc1C [Example 53, 3-[6-(3-methoxy-4-methyl-phenoxy)pyrazin-2-yl]-5,5-dimethyl-imidazolidine-2,4-dione]	49%	−6.0 mV	52%	−4.0 mV
COc1cc(Oc2ccnc(N3C(=O)NC4(CCCCC4)C3=O)n2)ccc1C [Example 50, 3-[4-(3-methoxy-4-methyl-phenoxy)pyrimidin-2-yl]-1,3-diazaspiro[4.5]decane-2,4-dione]	-7%	+1.6 mV	2%	−1.5 mV
Cc1ccc(Oc2cc(N3C(=O)NC(C)(C)C3=O)ncn2)cc1F [Example 16, 3-[6-(3-fluoro-4-methyl-phenoxy)pyrimidin-4-yl]-5,5-dimethyl-imidazolidine-2,4-dione]	24%	−2.8 mV	63%	−4.2 mV
CC[C@H]1NC(=O)N(c2nccc(Oc3ccccc3-c3ccccc3)n2)C1=O [Example 58, (5R)-5-ethyl-3-[4-(2-phenylphenoxy)pyrimidin-2-yl]imidazolidine-2,4-dione]	39%	−4.6 mV	61%	−6.9 mV
Cc1ccc(Oc2cc(N3C(=O)NC(C)(C)C3=O)ncn2)c2c1OCC21CC1 [Example 47, 5,5-dimethyl-3-[6-(7-methylspiro[2H-benzofuran-3,1′-cyclopropane]-4-yl)oxypyrimidin-4-yl]imidazolidine-2,4-dione]	54%	−4.9 mV	36%	−2.8 mV
COc1cc(Oc2cc(N3C(=O)NC4(CCCC4)C3=O)ncn2)ccc1F [Example 14, 3-[6-(4-fluoro-3-methoxy-phenoxy)pyrimidin-4-yl]-1,3-diazaspiro[4.4]nonane-2,4-dione]	42%	−1.1 mV	43%	−2.3 mV
COc1cc(Oc2nccc(N3C(=O)NC(C)(C)C3=O)n2)ccc1Cl [Example 66, 3-[2-(4-chloro-3-methoxy-phenoxy)pyrimidin-4-yl]-5,5-dimethyl-imidazolidine-2,4-dione]	54%	−3.5 mV	–	–
COc1cc(Oc2nccc(N3C(=O)NC(C)(C)C3=O)n2)ccc1C(F)(F)F [Example 65, 3-[2-[3-methoxy-4-(trifluoromethyl)-phenoxy]pyrimidin-4-yl]-5,5-dimethyl-imidazolidine-2,4-dione]	35%	−2.8 mV	32%	−2.7 mV
CC[C@H]1NC(=O)N(c2nccc(Oc3ccc(C)c(OC)c3)n2)C1=O [Example 56, (5R)-5-ethyl-3-[4-(3-methoxy-4-methyl-phenoxy)pyrimidin-2-yl]imidazolidine-2,4-dione]	35%	−4.6 mV	26%	−5.0 mV
COc1cc(Oc2nccc(N3C(=O)NC4(CCCCC4)C3=O)n2)ccc1C [Example 74, 3-[2-(3-methoxy-4-methyl-phenoxy)pyrimidin-4-yl]-1,3-diazaspiro[4.5]decane-2,4-dione]	12%	−1.6 mV	41%	−3.8 mV
